According to US20090311344A1, “Dosing Regimen” (priority 2008, published 2009):

Legend:
[1] = system: HT-29 human colon carcinoma xenografts; assay: HT-29 human colon carcinoma xenografts in athymic nude mice: tumor growth delay; format: in vivo
Source text: Administration of the TPO Mimetic Peptide Compound One Hour After Administration of Carboplatin. Effect on activity and toxicity of carboplatin against HT-29 human colon carcinoma xenografts established in athymic nude mice.
(§1) Five groups (n=10) of female athymic nude mice (Harlan) bearing established (˜100 mm^3) HT-29 human colon carcinomas on Day 1. Groups 6-9 (n=20) were included for blood sampling and received the same treatment as Groups 1-4, respectively. Treatment effects on the growth of tumors were evaluated by tumor growth delay (TGD), which is the difference between median time to endpoint (TTE) tumor size in a treatment group compared to a control group. The effect of these treatments on platelet and erythrocyte precursors was determined from CBC analysis and reticulocyte counts of blood samples taken on Days 10, 13, 21 and 24.
Xenografts were initiated from HT-29 human colon carcinoma xenografts maintained in athymic nude mice. HT-29 tumor fragments (1 mm^3) were implanted subcutaneously into the right flank of each test mouse, and tumor growth was monitored. On Day 1 of the study, the animals were pair-matched into five groups (Groups 1-5) for evaluation of efficacy and four groups for sampling (Groups 6-9). Groups 1-5 each consisted of ten animals with tumor sizes ranging from 75-126 mm^3 and group mean tumor sizes of 99 mm^3. Groups 6-9 each consisted of twenty animals with tumor sizes ranging from 40-221 mm^3 and group mean tumor sizes of 84 mm^3. Tumor weight was estimated with the assumption that 1 mg is equivalent to 1 mm^3 of tumor volume. Volume was calculated using the formula:
(§2) Group 1 mice (n=10) were untreated tumor growth controls. Group 2 mice (n=10) received 60 mg/kg carboplatin administered intraperitoneally (i.p.) on Days 1, 2, 12, and 13. Group 3 mice (n=10) received 0.2 mg/kg of the TPO mimetic peptide compound administered intravenously (i.v.) via tail vein on Days 2 and 13. Groups 4 and 5 received the combination of carboplatin (60 mg/kg i.p. on Days 1, 2, 12, and 13) and 0.2 mg/kg of the TPO mimetic peptide compound on Days 2, 13 and Days 2, 13, 23, respectively, administered intravenously (i.v.) one hour after carboplatin dosing. Groups 6-9 (n=20 each) were included for blood sampling and received the same treatments as Groups 1-4, respectively. For all groups, each dose of drug was given in a volume of 0.2 mL per 20 g of body weight (10 mL/kg), and was scaled to the body weight of each animal.
Tumors were measured twice each week using calipers. Each animal was euthanized when its tumor reached the predetermined endpoint size of 1000 mm^3, or on the final day of the study (Day 62), whichever came first. The time to endpoint (TTE) for each mouse was calculated from the following equation: […]
where b is the intercept and m is the slope of the line obtained by linear regression of a log-transformed tumor growth data set. The data set was comprised of the first observation that exceeded the study endpoint volume and the three consecutive observations that immediately preceded the attainment of the endpoint volume.
Treatment outcome was determined from tumor growth delay (TGD), which is defined as the increase in the median time to endpoint (TTE) in a treatment group compared to the control group:
where: • T=median TTE for a treatment group, • C=median TTE for the control group (Group 1)
Treatment may cause partial regression (PR) or complete regression (CR) of the tumor in an animal. In a PR response, the tumor volume is 50% or less of its Day 1 volume for three consecutive measurements during the course of the study, and equal to or greater than 13.5 mm^3 for one or more of these three measurements. In a CR response, the tumor volume is less than 13.5 mm^3 for three consecutive measurements during the course of the study. An animal with a CR response at the termination of a study is additionally classified as a long-term tumor-free survivor (LTTFS). […]

[2] = system: platelets, reticulocytes, hematocrit; assay: CBC analysis and reticulocyte counts in HT-29 tumor-bearing mice (Groups 6-9); format: in vivo, athymic nude mice; conditions: for mean reticulocyte values: Group 7
Procedure: as §1, with “The effect of these treatments on platelet and erythrocyte precursors was determined from CBC analysis and reticulocyte counts of blood samples taken on Days 10, 13, 21 and 24.” left out
as §2
[…] Blood was collected into EDTA tubes, and complete blood counts (CBC) with differential were determined using a Cell-Dyn® 3700 System (Abbott Diagnostics) for automated hematology analyses. Reticulocyte values were determined. In addition, for Groups 1-5, five animals per group were euthanized at or just after endpoint by terminal cardiac puncture under CO2 anesthesia, and gross necropsies were performed. Blood samples were collected into EDTA tubes, and CBC with differential and reticulocyte values were performed as previously described. All other animals in Groups 1-5 were euthanized at endpoint without sampling.

N.N.O=C([O-])C1(C(=O)[O-])CCC1.[Pt+2] [carboplatin, Carboplatin, reference compound]
regression responses ([1]; Group 2): No regression responses were recorded | number of 62-day survivors ([1]; Group 2, n=10): 1 | tumor volume of the animal remaining in the study on Day 62 ([1]; Group 2, one animal): 600 mm^3 | Tumor Burden Median ([1]; Group 2: carboplatin 60 mg/kg i.p. Days 1, 2, 12, 13, (n animals) in brackets): 600(1) | TGD (tumor growth delay) ([1]; Groups 2-4, relative to untreated Group 1, carboplatin 60 mg/kg i.p. Days 1, 2, 12, 13, TPO mimetic peptide compound 0.2 mg/kg i.v. Days 2, 13): 22.8 days | % Tumor Growth Delay ([1]; HT-29 xenografts, athymic nude mice, n=10, carboplatin 60 mg/kg i.p. Days 1, 2, 12, 13, TPO mimetic peptide compound 0.2 mg/kg i.v. Days 2, 13, Groups 2-4, vs untreated Group 1): 92% | Median TTE ([1]; HT-29 xenografts, athymic nude mice, n=10, carboplatin 60 mg/kg i.p. Days 1, 2, 12, 13, TPO mimetic peptide compound 0.2 mg/kg i.v. Days 2, 13, Groups 2-4, endpoint 1000 mm^3): 47.6 days | mean HCT values of Group 7 compared to Group 9 ([2]; Days 13, 21, and 23): slightly lower | mean reticulocyte values ([2]; Day 10 (near the expected nadir)): negligible | mean reticulocyte values ([2]; Day 13): higher than in control mice | mean reticulocyte values ([2]; Day 21 after the second cycle of treatment): low | mean hematocrit (HCT) values compared to untreated mice (Group 6) ([2]; Groups 7-9): lower mean HCT values than controls | mean platelet counts compared to untreated Group 6 controls ([2]; Groups 7-9, regimens as Groups 2-4, Days 10, 13, 21, and 23): lower mean platelet counts at all time points
